From PubChem BioAssay AID2060622 (Molecular Pharmacology Branch, DTP, NCI, 2025)

Tested on: 242566-281-R-J2-PDC complex spheroid viability
Assay: Anticancer human tumor 242566-281-R-J2-PDC patient-derived pancreatic carcinoma cell line growth inhibition [CLK]
Settings: for IC50: curve of first compound; for viability, T/C: stronger effect = lower value; active means viability on the fitted dose curve at most 10% of control; inactive means the rest
From the text: A high-throughput screen of multi-cell type tumor spheroids was designed to identify active combinations of […] and targeted small molecules. Complex spheroids include a stromal component modeled by human endothelial cells (HUVEC) and fibroblasts modeled by human mesenchymal stem cells (MSCs). The concentration ranges selected for each drug and investigational agent were based upon clinically achievable concentrations if the clinical Cmax of the agent was known.
Compounds. The drugs and investigational agents: cirtuvivint (SM08502; NSC835563), CC-671 (NSC850746), vemurafenib (NSC761431), tapotoclax (NSC804041), sotorasib (NSC818433), adagrasib (NSC831453), MRTX-1133 (NSC836407), BAY2416964 (NSC825713), copanlisib (NSC816437), inavolisib (NSC800729), abemaciclib (NSC768073), osimertinib (NSC779217), entinostat (NSC756642), eltanexor (KPT-8602, NSC794443), venetoclax (NSC766270), ceralasertib (NSC777638), bortezomib (NSC756655), olaparib (NSC753686), talazoparib (NSC767125), alisertib (NSC759677), peposertib (NSC802822), gemcitabine (NSC613327), 5-fluorouracil (NSC19893), SN-38 (NSC673596), oxaliplatin (NSC266046), paclitaxel (NSC125973), and doxorubicin (NSC123127), were obtained from the National Cancer Institute (NCI) Developmental Therapeutics Program Chemical Repository. The FDA-approved anticancer drug set is available from the Developmental Therapeutics Program at https://dtp.cancer.gov/organization/dscb/obtaining/available plates.htm. […] The stock solutions were prepared in dimethyl sulfoxide (DMSO, Sigma-Aldrich, St. Louis, MO, cat. D2650), except for the platinum complexes which were prepared in saline (Quality Biological, Gaithersburg, MD, cat. 114-055-101), at 800-fold the tested concentration and stored at -70 degrees C prior to their use. All drugs and investigational agents were tested over a range starting from a high concentration at or near the clinical Cmax and decreasing in half-log increments. If the clinical Cmax for an agent had not been determined, the highest concentration tested was 10 microM.
Cell Culture. All cells were maintained in an incubator at 37 degrees C and 5% CO2 with 95% humidity. The PDC lines were cultured according to standard operating procedures established by the NCI PDMR. Briefly, all PDCs were thawed and cultured in Matrigel-coated flasks prepared with a working solution of 1X Ham's F-12 nutrient mix, without supplementation (Invitrogen, Waltham, MA, cat. 11765054), 100 U/mL penicillin-streptomycin (Invitrogen, cat. 15140122), and 2.5% Matrigel (Corning Inc., Corning, NY, cat. 354248) for the first three passages. The 947758-054-R-J2-PDC line was cultured in 6B/Colon 1A media, which includes advanced DMEM/F-12 (Thermo Fisher Scientific, cat. 12634028), 10 mM HEPES (Thermo Fisher Scientific, cat. 15630080), 1X GlutaMAX supplement (Thermo Fisher Scientific, cat. 35050061), 0.1 mg/mL primocin (InvivoGen, cat. ant-pm-2), 10% defined fetal bovine serum, heat inactivated (HyClone Laboratories Inc., cat. SH30070.03HI), 1.25 mM N-Acetyl-L-cysteine (Sigma-Aldrich, cat. A9165), 10 mM nicotinamide (Sigma-Aldrich, cat. N0636), 1X B-27 supplement (Thermo Fisher Scientific, cat. 17504044), 1X N-2 supplement (Thermo Fisher Scientific, cat. 17502048), and 10 microM Y-27632 dihydrochloride (Tocris Bioscience, cat. 1254). The 876862-298-R-J1-PDC was cultured in 6E media, which includes all 6B/Colon 1A media components plus 50% L-WRN conditioned media (ATCC, cat. CRL-3276), 50 ng/mL recombinant human EGF recombinant protein (hEGF; Thermo Fisher Scientific, cat. PHG0311), 10 ng/mL recombinant human fibroblast growth factor 10 (hGFG-10; PeproTech, cat. 100-26), 1 ng/mL recombinant human fibroblast growth factor 2 (hFGF-2; PeproTech, cat. 100-18B), and 1 µM prostaglandin E2 (PGE2; Tocris, cat. 2296). The 227483-062-R1-J1-PDC line was cultured in Panc media, containing all 6E components except hFGF-2, with the addition of 500 nM SB-431542 (Selleckchem, cat. S1067) and 10 nM gastrin (Tocris, cat. 3006). […]

[1] = second compound 0.0316 µM, first compound 0.0316 µM
[2] = second compound 0.0316 µM, first compound 0.1 µM
[3] = second compound 0.0316 µM, first compound 0.316 µM
[4] = second compound 0.0316 µM, first compound 1 µM
[5] = second compound 0.0316 µM, first compound 3.16 µM
[6] = second compound 0.0316 µM, first compound 10 µM
[7] = second compound 0.1 µM, first compound 0.0316 µM
[8] = second compound 0.1 µM, first compound 0.1 µM
[9] = second compound 0.1 µM, first compound 0.316 µM
[10] = second compound 0.1 µM, first compound 1 µM
[11] = second compound 0.1 µM, first compound 3.16 µM
[12] = second compound 0.1 µM, first compound 10 µM
[13] = second compound 0.316 µM, first compound 0.0316 µM
[14] = second compound 0.316 µM, first compound 0.1 µM
[15] = second compound 0.316 µM, first compound 0.316 µM
[16] = second compound 0.316 µM, first compound 1 µM
[17] = second compound 0.316 µM, first compound 3.16 µM
[18] = second compound 0.316 µM, first compound 10 µM
[19] = second compound 1 µM, first compound 0.0316 µM
[20] = second compound 1 µM, first compound 0.1 µM
[21] = second compound 1 µM, first compound 0.316 µM
[22] = second compound 1 µM, first compound 1 µM
[23] = second compound 1 µM, first compound 3.16 µM
[24] = second compound 1 µM, first compound 10 µM
[25] = second compound 3.16 µM, first compound 0.0316 µM
[26] = second compound 3.16 µM, first compound 0.1 µM
[27] = second compound 3.16 µM, first compound 0.316 µM
[28] = second compound 3.16 µM, first compound 1 µM
[29] = second compound 3.16 µM, first compound 3.16 µM
[30] = second compound 3.16 µM, first compound 10 µM
[31] = second compound 10 µM, first compound 0.0316 µM
[32] = second compound 10 µM, first compound 0.1 µM
[33] = second compound 10 µM, first compound 0.316 µM
[34] = second compound 10 µM, first compound 1 µM
[35] = second compound 10 µM, first compound 3.16 µM
[36] = second compound 10 µM, first compound 10 µM
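Further: spheroids exposed to compounds for 7 days before readout.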
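Wherever viability, T/C is given: 100% = DMSO vehicle control wells.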

C=CC(=O)N1CCN(c2nc(=O)n(-c3c(C)ccnc3C(C)C)c3nc(-c4c(O)cccc4F)c(F)cc23)C(C)C1 (centres undefined) + CN1CCN(c2cc(C(=O)Nc3cc4cc(-c5cnn(C)c5)ccc4cn3)ccn2)CC1
active: viability, T/C [19] 5.06% | viability, T/C [20] 5.31% | viability, T/C [21] 6.97% | viability, T/C [22] 9.26% | viability, T/C [23] 11.1% | viability, T/C [24] 6.36% | viability, T/C [25] 7.67% | viability, T/C [26] 8.25% | viability, T/C [27] 11.1% | viability, T/C [28] 11.7% | viability, T/C [29] 11.6% | viability, T/C [30] 8.7% | viability, T/C [31] 2.18% | viability, T/C [32] 2.58% | viability, T/C [33] 2.81% | viability, T/C [34] 4.46% | viability, T/C [35] 4.9% | viability, T/C [36] 2.7%
< 31.6 nM: IC50 (second compound 0.316 µM) | IC50 (second compound 1 µM) | IC50 (second compound 3.16 µM) | IC50 (second compound 10 µM)
inactive: viability, T/C [1] 113% | viability, T/C [2] 105% | viability, T/C [3] 102% | viability, T/C [4] 117% | viability, T/C [5] 103% | viability, T/C [6] 72.9% | viability, T/C [7] 106% | viability, T/C [8] 94.3% | viability, T/C [9] 81.6% | viability, T/C [10] 109% | viability, T/C [11] 105% | viability, T/C [12] 67.5% | viability, T/C [13] 47.2% | viability, T/C [14] 47.3% | viability, T/C [15] 40.8% | viability, T/C [16] 45.2% | viability, T/C [17] 48.2% | viability, T/C [18] 23.4%
> 10000 nM: IC50 (second compound 0.0316 µM) | IC50 (second compound 0.1 µM)

COC1C=CCC(C)C(C)S(=O)(=O)NC(=O)c2ccc3c(c2)N(CC2CCC21)CC1(CCCc2cc(Cl)ccc21)CO3 (centres undefined) + CN1CCN(c2cc(C(=O)Nc3cc4cc(-c5cnn(C)c5)ccc4cn3)ccn2)CC1
3440 nM: IC50 (second compound 0.1 µM)
active: viability, T/C [18] 3.62% | viability, T/C [19] 4.66% | viability, T/C [20] 4.57% | viability, T/C [21] 3.7% | viability, T/C [22] 4.79% | viability, T/C [23] 3.13% | viability, T/C [24] 2.17% | viability, T/C [25] 7.61% | viability, T/C [26] 7.11% | viability, T/C [27] 6.63% | viability, T/C [28] 7.11% | viability, T/C [29] 6.71% | viability, T/C [30] 4.96% | viability, T/C [31] 1.98% | viability, T/C [32] 1.96% | viability, T/C [33] 1.79% | viability, T/C [34] 1.93% | viability, T/C [35] 1.82% | viability, T/C [36] 0.48%
inactive: viability, T/C [1] 93% | viability, T/C [2] 119% | viability, T/C [3] 101% | viability, T/C [4] 81.6% | viability, T/C [5] 78.9% | viability, T/C [6] 20.3% | viability, T/C [7] 93.2% | viability, T/C [8] 94.1% | viability, T/C [9] 87.8% | viability, T/C [10] 66.6% | viability, T/C [11] 56.6% | viability, T/C [12] 16.5% | viability, T/C [13] 37.5% | viability, T/C [14] 34.1% | viability, T/C [15] 28.7% | viability, T/C [16] 16.1% | viability, T/C [17] 12.8%
< 31.6 nM: IC50 (second compound 0.316 µM) | IC50 (second compound 1 µM) | IC50 (second compound 3.16 µM) | IC50 (second compound 10 µM)
5300 nM: IC50 (second compound 0.0316 µM)
